The target of experiment [1] is T1, Glycogen phosphorylase, liver form (Homo sapiens, UniProt P06737).
T1 sequence (P06737 whole entry): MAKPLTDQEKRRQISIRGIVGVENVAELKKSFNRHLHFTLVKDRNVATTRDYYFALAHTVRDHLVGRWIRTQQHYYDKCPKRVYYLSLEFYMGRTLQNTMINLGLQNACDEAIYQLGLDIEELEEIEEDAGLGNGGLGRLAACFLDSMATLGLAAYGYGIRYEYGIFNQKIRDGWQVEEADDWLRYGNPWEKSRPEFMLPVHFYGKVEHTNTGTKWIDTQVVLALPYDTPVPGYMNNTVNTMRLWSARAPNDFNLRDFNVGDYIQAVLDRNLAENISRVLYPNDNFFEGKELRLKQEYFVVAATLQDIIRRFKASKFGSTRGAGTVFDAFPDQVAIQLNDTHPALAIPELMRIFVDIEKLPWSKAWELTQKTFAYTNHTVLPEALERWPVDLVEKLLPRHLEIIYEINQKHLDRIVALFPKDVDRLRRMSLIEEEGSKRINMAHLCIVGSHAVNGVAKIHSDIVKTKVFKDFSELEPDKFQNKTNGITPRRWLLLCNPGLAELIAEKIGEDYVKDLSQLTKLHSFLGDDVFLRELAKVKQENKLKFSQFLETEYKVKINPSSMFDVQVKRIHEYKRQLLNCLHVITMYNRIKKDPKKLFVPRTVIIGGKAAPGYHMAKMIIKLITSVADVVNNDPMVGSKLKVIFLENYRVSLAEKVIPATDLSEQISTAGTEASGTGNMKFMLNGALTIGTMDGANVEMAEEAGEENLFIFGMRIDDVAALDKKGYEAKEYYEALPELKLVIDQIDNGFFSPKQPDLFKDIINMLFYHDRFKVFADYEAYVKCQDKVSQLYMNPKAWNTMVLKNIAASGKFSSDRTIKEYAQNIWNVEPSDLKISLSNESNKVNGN
The experiment is classed as subcellular, K-562, COLO 205, SK-N-BE(2) and MV-4-11, Cell lysate. The conditions noted are these: read-out: Kd apparent.

The target in another experiment is Adenosine kinase (Homo sapiens, UniProt P55263).
Experiment [2] deals with T2, Delta(24)-sterol reductase (Homo sapiens, UniProt Q15392).
T2 sequence (Q15392 whole entry): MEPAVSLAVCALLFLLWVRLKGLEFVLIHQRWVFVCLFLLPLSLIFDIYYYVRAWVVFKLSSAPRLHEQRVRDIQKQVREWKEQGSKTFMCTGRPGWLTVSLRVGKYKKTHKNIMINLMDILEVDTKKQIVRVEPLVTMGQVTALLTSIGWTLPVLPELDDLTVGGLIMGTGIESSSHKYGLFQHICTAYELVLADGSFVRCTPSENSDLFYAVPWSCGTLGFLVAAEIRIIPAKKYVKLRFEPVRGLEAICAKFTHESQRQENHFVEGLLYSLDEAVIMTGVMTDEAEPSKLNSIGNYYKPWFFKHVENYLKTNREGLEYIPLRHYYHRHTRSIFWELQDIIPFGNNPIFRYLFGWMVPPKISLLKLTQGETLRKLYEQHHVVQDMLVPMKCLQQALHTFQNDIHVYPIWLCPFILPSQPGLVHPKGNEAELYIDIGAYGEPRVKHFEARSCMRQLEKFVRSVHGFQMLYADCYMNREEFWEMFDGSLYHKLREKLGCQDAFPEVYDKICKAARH

In experiment [3] the target is Protein kinase C beta type (Homo sapiens, UniProt P05771).
Experiment [4] concerns the target Serine/threonine-protein kinase SIK3 (Homo sapiens, UniProt Q9Y2K2).
The target of the next experiment is DNA topoisomerase 2-beta (Homo sapiens, UniProt Q02880).
The target of experiment [5] is T3, EKC/KEOPS complex subunit TP53RK (Homo sapiens, UniProt Q96S44).
T3 sequence (Q96S44 whole entry): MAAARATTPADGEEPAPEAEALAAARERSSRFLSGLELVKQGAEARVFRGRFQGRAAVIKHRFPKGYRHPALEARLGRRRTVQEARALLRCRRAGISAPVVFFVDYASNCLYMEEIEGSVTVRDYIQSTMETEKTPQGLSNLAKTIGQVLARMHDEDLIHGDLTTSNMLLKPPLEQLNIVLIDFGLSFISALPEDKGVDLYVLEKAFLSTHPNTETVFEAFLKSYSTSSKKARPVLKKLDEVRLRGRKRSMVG

In experiment [6] the target is T4, General transcription and DNA repair factor IIH helicase subunit XPD (Homo sapiens, UniProt P18074).
T4 sequence (P18074 whole entry): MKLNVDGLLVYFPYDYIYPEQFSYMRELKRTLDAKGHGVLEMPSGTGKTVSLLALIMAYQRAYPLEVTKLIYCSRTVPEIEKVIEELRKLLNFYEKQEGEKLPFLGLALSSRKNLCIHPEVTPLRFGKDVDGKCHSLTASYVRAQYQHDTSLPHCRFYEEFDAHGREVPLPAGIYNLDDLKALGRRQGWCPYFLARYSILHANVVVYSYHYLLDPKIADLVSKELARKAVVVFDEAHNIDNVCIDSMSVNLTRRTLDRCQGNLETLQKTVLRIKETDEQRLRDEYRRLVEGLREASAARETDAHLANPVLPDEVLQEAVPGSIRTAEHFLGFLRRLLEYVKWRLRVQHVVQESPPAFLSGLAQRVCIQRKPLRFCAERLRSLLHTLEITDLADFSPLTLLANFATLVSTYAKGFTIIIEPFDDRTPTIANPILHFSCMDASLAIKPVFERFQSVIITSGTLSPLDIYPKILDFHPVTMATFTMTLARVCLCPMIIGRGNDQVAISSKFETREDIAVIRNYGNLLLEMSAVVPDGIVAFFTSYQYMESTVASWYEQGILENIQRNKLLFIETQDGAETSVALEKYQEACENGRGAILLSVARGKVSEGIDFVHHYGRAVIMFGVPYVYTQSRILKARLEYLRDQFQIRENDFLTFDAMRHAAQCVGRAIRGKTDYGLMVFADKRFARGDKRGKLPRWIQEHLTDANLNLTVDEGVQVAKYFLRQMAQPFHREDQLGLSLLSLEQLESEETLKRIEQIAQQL
The conditions noted are these: read-out: Kd apparent; k-562, colo 205, sk-n-be(2) and mv-4-11.

For experiment [7], the target named is Mitogen-activated protein kinase 7 (Homo sapiens, UniProt Q13164).
For experiment [8], the target named is Mitogen-activated protein kinase 1 (Homo sapiens, UniProt P28482).
Experiment [9] addresses Proto-oncogene tyrosine-protein kinase Src (Homo sapiens, UniProt P12931).

Structures are written as SMILES. Calls of active or inactive are those of the source.
Note: in the data inactive means no Kd found up to 30 µM.

Chain of DNA topoisomerase 2-beta (Q02880 whole entry): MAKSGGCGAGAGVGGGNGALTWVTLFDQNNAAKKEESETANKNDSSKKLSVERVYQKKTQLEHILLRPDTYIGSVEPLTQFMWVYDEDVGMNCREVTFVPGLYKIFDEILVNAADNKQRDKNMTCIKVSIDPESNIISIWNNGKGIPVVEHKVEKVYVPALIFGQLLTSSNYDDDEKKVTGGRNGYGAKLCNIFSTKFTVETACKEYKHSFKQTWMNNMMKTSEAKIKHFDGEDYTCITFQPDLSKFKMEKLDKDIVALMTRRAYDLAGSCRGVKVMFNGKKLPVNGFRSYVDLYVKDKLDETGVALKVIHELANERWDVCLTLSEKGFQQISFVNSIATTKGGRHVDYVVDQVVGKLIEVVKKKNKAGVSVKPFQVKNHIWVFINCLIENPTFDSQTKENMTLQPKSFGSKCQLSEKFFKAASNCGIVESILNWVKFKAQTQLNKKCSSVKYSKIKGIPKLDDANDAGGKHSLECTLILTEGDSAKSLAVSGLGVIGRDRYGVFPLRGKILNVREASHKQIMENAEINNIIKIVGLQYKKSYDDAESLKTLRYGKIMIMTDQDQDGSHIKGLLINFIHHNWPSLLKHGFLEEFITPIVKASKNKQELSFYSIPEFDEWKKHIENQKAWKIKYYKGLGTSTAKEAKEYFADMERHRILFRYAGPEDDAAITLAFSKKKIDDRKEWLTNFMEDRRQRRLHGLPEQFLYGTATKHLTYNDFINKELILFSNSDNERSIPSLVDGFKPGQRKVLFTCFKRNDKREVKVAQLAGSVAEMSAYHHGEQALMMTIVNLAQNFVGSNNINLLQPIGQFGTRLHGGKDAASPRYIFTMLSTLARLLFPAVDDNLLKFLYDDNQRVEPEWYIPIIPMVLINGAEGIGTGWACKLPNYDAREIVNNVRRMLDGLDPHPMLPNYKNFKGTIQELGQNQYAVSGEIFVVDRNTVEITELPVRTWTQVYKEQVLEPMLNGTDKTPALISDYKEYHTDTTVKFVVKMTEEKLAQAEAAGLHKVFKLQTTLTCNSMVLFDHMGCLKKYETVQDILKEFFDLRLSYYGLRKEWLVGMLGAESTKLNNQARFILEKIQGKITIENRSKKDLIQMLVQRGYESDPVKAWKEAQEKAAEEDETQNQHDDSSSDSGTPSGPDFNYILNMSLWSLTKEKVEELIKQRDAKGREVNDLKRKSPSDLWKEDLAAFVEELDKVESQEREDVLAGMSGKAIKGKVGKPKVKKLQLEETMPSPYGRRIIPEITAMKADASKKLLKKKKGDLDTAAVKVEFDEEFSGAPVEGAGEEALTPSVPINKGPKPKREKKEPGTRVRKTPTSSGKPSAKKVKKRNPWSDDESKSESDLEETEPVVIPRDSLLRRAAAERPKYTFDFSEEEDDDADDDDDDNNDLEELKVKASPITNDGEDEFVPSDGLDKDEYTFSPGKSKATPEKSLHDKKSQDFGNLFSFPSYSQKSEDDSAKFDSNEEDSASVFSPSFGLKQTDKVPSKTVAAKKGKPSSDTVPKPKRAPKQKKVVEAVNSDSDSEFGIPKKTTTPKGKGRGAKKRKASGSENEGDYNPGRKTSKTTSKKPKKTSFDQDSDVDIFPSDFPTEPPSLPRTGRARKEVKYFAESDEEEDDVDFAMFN
Chain of Protein kinase C beta type (P05771 whole entry): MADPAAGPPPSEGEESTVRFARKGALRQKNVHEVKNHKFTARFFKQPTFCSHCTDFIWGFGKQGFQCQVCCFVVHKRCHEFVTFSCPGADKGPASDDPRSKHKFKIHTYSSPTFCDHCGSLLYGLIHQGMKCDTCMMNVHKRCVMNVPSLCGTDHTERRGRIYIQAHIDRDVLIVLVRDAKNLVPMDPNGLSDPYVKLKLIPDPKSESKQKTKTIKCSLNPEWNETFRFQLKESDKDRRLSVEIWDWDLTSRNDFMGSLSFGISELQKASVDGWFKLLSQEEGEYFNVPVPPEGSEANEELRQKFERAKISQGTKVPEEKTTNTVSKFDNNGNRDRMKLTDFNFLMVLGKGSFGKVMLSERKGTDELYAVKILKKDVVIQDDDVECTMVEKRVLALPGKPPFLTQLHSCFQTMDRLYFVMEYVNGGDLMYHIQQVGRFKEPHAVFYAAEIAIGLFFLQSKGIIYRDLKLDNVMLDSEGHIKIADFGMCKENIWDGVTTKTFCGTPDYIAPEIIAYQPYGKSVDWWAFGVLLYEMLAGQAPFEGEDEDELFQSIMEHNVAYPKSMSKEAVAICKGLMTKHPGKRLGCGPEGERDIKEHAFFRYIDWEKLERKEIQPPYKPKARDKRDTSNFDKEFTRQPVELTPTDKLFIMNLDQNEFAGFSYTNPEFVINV
Chain of Adenosine kinase (P55263 whole entry): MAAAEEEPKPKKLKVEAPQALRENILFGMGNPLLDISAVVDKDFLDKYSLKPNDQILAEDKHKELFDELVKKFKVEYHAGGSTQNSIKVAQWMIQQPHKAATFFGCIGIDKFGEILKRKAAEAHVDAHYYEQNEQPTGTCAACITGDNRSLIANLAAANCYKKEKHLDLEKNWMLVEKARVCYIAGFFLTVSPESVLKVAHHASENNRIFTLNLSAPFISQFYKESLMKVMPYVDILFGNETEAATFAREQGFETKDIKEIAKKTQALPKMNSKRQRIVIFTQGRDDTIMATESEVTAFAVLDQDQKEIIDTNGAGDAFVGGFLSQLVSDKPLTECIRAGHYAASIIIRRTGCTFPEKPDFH
Chain of Serine/threonine-protein kinase SIK3 (Q9Y2K2 whole entry): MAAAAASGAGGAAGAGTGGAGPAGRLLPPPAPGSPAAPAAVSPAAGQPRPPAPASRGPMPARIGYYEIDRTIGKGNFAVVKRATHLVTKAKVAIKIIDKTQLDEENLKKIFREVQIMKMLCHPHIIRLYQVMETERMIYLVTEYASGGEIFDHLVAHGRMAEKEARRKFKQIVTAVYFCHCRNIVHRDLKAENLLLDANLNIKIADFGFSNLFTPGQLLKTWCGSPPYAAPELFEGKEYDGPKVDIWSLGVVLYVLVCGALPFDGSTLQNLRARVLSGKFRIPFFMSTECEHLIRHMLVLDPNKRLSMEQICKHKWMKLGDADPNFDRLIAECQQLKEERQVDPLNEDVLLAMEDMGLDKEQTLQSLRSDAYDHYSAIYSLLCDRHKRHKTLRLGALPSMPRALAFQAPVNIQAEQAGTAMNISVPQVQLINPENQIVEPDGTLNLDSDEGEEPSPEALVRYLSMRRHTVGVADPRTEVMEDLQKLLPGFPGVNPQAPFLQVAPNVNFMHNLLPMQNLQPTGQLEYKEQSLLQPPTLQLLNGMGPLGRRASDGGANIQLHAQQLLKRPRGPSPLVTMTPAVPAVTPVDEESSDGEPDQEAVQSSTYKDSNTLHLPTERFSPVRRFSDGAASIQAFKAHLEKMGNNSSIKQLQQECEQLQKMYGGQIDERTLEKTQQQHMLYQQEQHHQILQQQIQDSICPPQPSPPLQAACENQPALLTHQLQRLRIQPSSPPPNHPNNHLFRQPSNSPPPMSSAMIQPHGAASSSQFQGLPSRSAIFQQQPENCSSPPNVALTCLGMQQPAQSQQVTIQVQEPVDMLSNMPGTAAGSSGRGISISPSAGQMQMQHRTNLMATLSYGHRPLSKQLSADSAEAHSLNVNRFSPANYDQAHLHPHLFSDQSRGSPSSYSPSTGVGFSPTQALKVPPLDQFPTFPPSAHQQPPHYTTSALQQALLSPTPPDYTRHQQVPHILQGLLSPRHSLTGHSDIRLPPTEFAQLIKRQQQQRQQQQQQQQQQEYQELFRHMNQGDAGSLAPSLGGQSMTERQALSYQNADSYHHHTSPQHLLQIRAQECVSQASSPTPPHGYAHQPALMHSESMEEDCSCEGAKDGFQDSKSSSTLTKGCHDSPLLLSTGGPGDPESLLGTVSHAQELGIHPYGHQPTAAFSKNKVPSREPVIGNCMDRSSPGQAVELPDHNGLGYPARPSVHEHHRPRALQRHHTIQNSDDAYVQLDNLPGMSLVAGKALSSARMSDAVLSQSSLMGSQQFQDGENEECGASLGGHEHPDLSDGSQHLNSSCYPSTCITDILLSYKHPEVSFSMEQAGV
Chain of Mitogen-activated protein kinase 7 (Q13164 whole entry): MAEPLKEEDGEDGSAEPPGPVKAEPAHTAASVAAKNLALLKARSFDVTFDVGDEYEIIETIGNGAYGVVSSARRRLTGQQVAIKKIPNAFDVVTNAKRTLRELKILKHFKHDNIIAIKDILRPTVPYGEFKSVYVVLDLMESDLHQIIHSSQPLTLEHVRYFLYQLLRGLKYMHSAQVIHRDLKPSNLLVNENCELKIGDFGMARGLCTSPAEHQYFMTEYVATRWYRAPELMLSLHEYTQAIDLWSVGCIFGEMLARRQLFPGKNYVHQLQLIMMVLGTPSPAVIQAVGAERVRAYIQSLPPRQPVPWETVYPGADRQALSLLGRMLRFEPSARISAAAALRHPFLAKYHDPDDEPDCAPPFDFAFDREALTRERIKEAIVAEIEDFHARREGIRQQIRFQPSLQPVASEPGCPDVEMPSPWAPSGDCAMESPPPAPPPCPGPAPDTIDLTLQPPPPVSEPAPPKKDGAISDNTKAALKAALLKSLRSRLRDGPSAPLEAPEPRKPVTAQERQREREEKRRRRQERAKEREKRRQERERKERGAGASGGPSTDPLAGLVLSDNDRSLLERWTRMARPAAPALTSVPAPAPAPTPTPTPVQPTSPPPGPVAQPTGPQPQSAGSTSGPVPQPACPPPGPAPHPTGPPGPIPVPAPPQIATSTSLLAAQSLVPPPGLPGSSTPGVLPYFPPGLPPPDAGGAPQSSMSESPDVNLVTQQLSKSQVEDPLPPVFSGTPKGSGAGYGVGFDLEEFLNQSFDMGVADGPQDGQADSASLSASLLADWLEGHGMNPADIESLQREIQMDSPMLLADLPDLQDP

As to `O=C(Nc1cccc(Cl)c1)Nc1ncc(CCNc2ncnc3ccsc23)s1` [SNS-314], the Kd (in experiment [1]; at Adenosine kinase; in experiment [2]; in [3]; in experiment [4]; on DNA topoisomerase 2-beta) was > 30 µM (inactive) in each case. Also, the Kd in experiment [5] and in [6] was > 30 µM (inactive) each time.
As to `Cc1cn(-c2cc(NC(=O)c3ccc(C)c(Nc4nccc(-c5cccnc5)n4)c3)cc(C(F)(F)F)c2)cn1` [NILOTINIB], the Kd (in experiment [1]; on Adenosine kinase; in experiment [2]; in [3]; on DNA topoisomerase 2-beta; in [5]) was > 30 µM (inactive) throughout. Also, the Kd in experiment [6] was > 30 µM (inactive).
`Nc1nc(N)c2nc(-c3cccc(O)c3)c(-c3cccc(O)c3)nc2n1` [TG100-115]: the Kd (in experiment [1]; at Adenosine kinase; in experiment [2]; in experiment [3]; on DNA topoisomerase 2-beta; in experiment [5]) was > 30 µM (inactive) in each case. In experiment [6], the Kd was > 30 µM (inactive).
`CN1CCN(c2ccc3nc(-c4c(N)c5c(F)cccc5[nH]c4=O)[nH]c3c2)CC1` [DOVITINIB]: the Kd (in experiment [1]; at Adenosine kinase; in experiment [2]; in experiment [3]; at DNA topoisomerase 2-beta; in [5]) was > 30 µM (inactive) throughout. Further, the Kd in experiment [6] was > 30 µM (inactive).
As to `Cc1cc(Nc2cc(N3CCN(C)CC3)nc(/C=C/c3ccccc3)n2)n[nH]1` [ENMD-2076], the Kd (in [1]; on Adenosine kinase; in [2]; in experiment [7]; in [3]; in [4]) was > 30 µM (inactive) each time. For the same compound, the Kd (at DNA topoisomerase 2-beta; in experiment [5]; in [6]) was > 30 µM (inactive) throughout.
With `Cc1nc(N)sc1-c1ccnc(Nc2ccc(N3CCOCC3)cc2)n1` [CYC-116], the Kd (in [1]; at Adenosine kinase; in [2]; in experiment [7]; in experiment [3]; on DNA topoisomerase 2-beta) was > 30 µM (inactive) throughout. Further, the Kd in experiment [5] and in [6] was > 30 µM (inactive) in each case.
Take `CCn1c(-c2nonc2N)nc2c(C#CC(C)(C)O)ncc(OC[C@H]3CCCNC3)c21` [GSK-690693]: the Kd in [1] is > 30 µM (inactive); on Adenosine kinase, > 30 µM (inactive); in [2], > 30 µM (inactive); in experiment [3], 0.31 µM (active); on DNA topoisomerase 2-beta it was > 30 µM (inactive); in experiment [5], > 30 µM (inactive). Also, in [6], the Kd was > 30 µM (inactive).
Consider `CCc1cnn2c(NCc3ccc[n+]([O-])c3)cc(N3CCCC[C@H]3CCO)nc12` [DINACICLIB], for which the Kd (in [1]; on Adenosine kinase; in [2]; in [8]; in experiment [7]; in experiment [3]) was > 30 µM (inactive) in each case. For the same compound, the Kd (in experiment [4]; in experiment [9]; on DNA topoisomerase 2-beta; in experiment [5]) was > 30 µM (inactive) in each case.
Take `N[C@@H]1CCCN(c2c(/C=C3\SC(=O)NC3=O)cccc2-c2ccccc2)C1`: the Kd (in experiment [1]; at Adenosine kinase; in [2]; in experiment [8]; in experiment [3]; in [4]) was > 30 µM (inactive) in each case. In addition, the Kd (in experiment [9]; at DNA topoisomerase 2-beta; in experiment [5]; in [6]) was > 30 µM (inactive) each time.
As for `OCCn1cc(-c2cnc3nnn(Cc4ccc5ncccc5c4)c3n2)cn1` [PF-04217903], the Kd (in experiment [1]; on Adenosine kinase; in experiment [2]; in [8]; in [7]; in [3]) was > 30 µM (inactive) in each case. Besides, the Kd (in experiment [4]; in [9]; on DNA topoisomerase 2-beta; in experiment [5]; in [6]) was > 30 µM (inactive) in each case.
Take `CN1CCC(CNc2ccc3ncc(-c4cccc(OC(F)(F)F)c4)n3n2)CC1` [SGI-1776]: the Kd (in experiment [1]; at Adenosine kinase; in experiment [2]; in [8]; in [7]; in [3]) was > 30 µM (inactive) each time. The Kd (in [4]; in experiment [9]; at DNA topoisomerase 2-beta; in [5]; in experiment [6]) was > 30 µM (inactive) throughout.
Regarding `CN1N=C(N)c2cn([C@@H]3O[C@H](COP(=O)(O)O)[C@@H](O)[C@H]3O)c3ncnc1c23` [TRICIRIBINE PHOSPHATE], the Kd (in experiment [1]; on Adenosine kinase; in experiment [2]; in experiment [8]; in [7]; in experiment [3]) was > 30 µM (inactive) in each case. For the same compound, the Kd (in [4]; in [9]; on DNA topoisomerase 2-beta; in [5]; in experiment [6]) was > 30 µM (inactive) each time.
